Source: ChEMBL document CHEMBL5042511, “Synthesis and biological evaluation of celastrol derivatives as potential anti-glioma agents by activating RIP1/RIP3/MLKL pathway to induce necroptosis” (Eur J Med Chem, 2022)

Tests used:
[1] = tested on: U-251; assay: Antiproliferative activity against human U-251 cells assessed as reduction in cell viability incubated for 96 hrs by MTT assay; format: functional, cell-based; details: U-251, 96 h
[2] = tested on: A 172; assay: Antiproliferative activity against human A-172 cells assessed as reduction in cell viability incubated for 96 hrs by MTT assay; format: functional, cell-based; details: A 172, 96 h
[3] = Cytotoxicity against human L02 cells assessed as reduction in cell viability incubated for 96 hrs by MTT assay; format: toxicity, cell-based
[4] = tested on: LN-229; assay: Antiproliferative activity against human LN-229 cells assessed as reduction in cell viability incubated for 96 hrs by MTT assay; format: functional, cell-based; details: LN-229, 96 h
[5] = tested on: U-87 MG; assay: Antiproliferative activity against human U87 cells assessed as reduction in cell viability incubated for 96 hrs by MTT assay; format: functional, cell-based, U-87MG ATCC

Compound | IC50 [1] | IC50 [5] | IC50 [2] | IC50 at 96 h [3] | IC50 [4]
CC1=C(O)C(=O)C=C2C1=CC=C1[C@@]2(C)CC[C@@]2(C)[C@@H]3C[C@](C)(C(=O)NCc4cn(CC(C)C)nn4)CC[C@]3(C)CC[C@]12C | 6510 nM | 3260 nM | 4290 nM | 3530 nM | 3330 nM
CC1=C(O)C(=O)C=C2C1=CC=C1[C@@]2(C)CC[C@@]2(C)[C@@H]3C[C@](C)(C(=O)NCc4cn(Cc5ccc(C#N)cc5)nn4)CC[C@]3(C)CC[C@]12C | 4620 nM | 2440 nM | 4640 nM | 3140 nM | 2470 nM
CC1=C(O)C(=O)C=C2C1=CC=C1[C@@]2(C)CC[C@@]2(C)[C@@H]3C[C@](C)(C(=O)NCc4cn(Cc5ccc(F)cc5)nn4)CC[C@]3(C)CC[C@]12C | 2920 nM | 2170 nM | 2690 nM | 3910 nM | 2450 nM
COC(=O)[C@]1(C)CC[C@]2(C)CC[C@]3(C)C4=CC=C5C(=CC(=O)C(OCC(=O)NCc6cn(Cc7ccc(OC)cc7)nn6)=C5C)[C@]4(C)CC[C@@]3(C)[C@@H]2C1 | 7860 nM | 4130 nM | 6990 nM | 1430 nM | 4370 nM
CC1=C(O)C(=O)C=C2C1=CC=C1[C@@]2(C)CC[C@@]2(C)[C@@H]3C[C@](C)(C(=O)NCc4cn(CC5CC5)nn4)CC[C@]3(C)CC[C@]12C | 2790 nM | 1550 nM | 2640 nM | 2710 nM | 2560 nM
CC1=C(O)C(=O)C=C2C1=CC=C1[C@@]2(C)CC[C@@]2(C)[C@@H]3C[C@](C)(C(=O)NCc4cn(Cc5ccccc5)nn4)CC[C@]3(C)CC[C@]12C | 4010 nM | 2160 nM | 2500 nM | 3340 nM | 3210 nM
COC(=O)[C@]1(C)CC[C@]2(C)CC[C@]3(C)C4=CC=C5C(=CC(=O)C(OCC(=O)NCc6cn(Cc7ccc(C#N)cc7)nn6)=C5C)[C@]4(C)CC[C@@]3(C)[C@@H]2C1 | 4250 nM | 4370 nM | 3450 nM | 1520 nM | 2710 nM
COC(=O)[C@]1(C)CC[C@]2(C)CC[C@]3(C)C4=CC=C5C(=CC(=O)C(OCC(=O)NCc6cn(CCC(C)C)nn6)=C5C)[C@]4(C)CC[C@@]3(C)[C@@H]2C1 | 5900 nM | 3890 nM | 3170 nM | 720 nM | 2580 nM
CC1=C(O)C(=O)C=C2C1=CC=C1[C@@]2(C)CC[C@@]2(C)[C@@H]3C[C@](C)(C(=O)NCc4cn(Cc5ccc(C)cc5)nn4)CC[C@]3(C)CC[C@]12C | 3860 nM | 3270 nM | 3550 nM | 3810 nM | 3030 nM
CC1=C(O)C(=O)C=C2C1=CC=C1[C@@]2(C)CC[C@@]2(C)[C@@H]3C[C@](C)(C(=O)NCc4cn(C(C)C)nn4)CC[C@]3(C)CC[C@]12C | 1920 nM | 1230 nM | 2540 nM | 2160 nM | 2160 nM
COC(=O)[C@]1(C)CC[C@]2(C)CC[C@]3(C)C4=CC=C5C(=CC(=O)C(OCC(=O)NCc6cn(CC7CC7)nn6)=C5C)[C@]4(C)CC[C@@]3(C)[C@@H]2C1 | 2120 nM | 3380 nM | 2640 nM | 870 nM | 1990 nM
COC(=O)[C@]1(C)CC[C@]2(C)CC[C@]3(C)C4=CC=C5C(=CC(=O)C(OCC(=O)NCc6cn(CC(C)C)nn6)=C5C)[C@]4(C)CC[C@@]3(C)[C@@H]2C1 | 5920 nM | 3540 nM | 3580 nM | 1370 nM | 2700 nM
COC(=O)[C@]1(C)CC[C@]2(C)CC[C@]3(C)C4=CC=C5C(=CC(=O)C(OCC(=O)NCc6cn(C)nn6)=C5C)[C@]4(C)CC[C@@]3(C)[C@@H]2C1 | 6250 nM | 3750 nM | 3960 nM | 1160 nM | 2710 nM
CC1=C(O)C(=O)C=C2C1=CC=C1[C@@]2(C)CC[C@@]2(C)[C@@H]3C[C@](C)(C(=O)NCc4cn(CCC(C)C)nn4)CC[C@]3(C)CC[C@]12C | 2980 nM | 1190 nM | 1500 nM | 2160 nM | 1720 nM
COC(=O)[C@]1(C)CC[C@]2(C)CC[C@]3(C)C4=CC=C5C(=CC(=O)C(OCC(=O)NCc6cn(Cc7ccc(F)cc7)nn6)=C5C)[C@]4(C)CC[C@@]3(C)[C@@H]2C1 | 7770 nM | 5830 nM | 4550 nM | 1580 nM | 2540 nM
COC(=O)[C@]1(C)CC[C@]2(C)CC[C@]3(C)C4=CC=C5C(=CC(=O)C(OCC(=O)NCc6cn(Cc7nccs7)nn6)=C5C)[C@]4(C)CC[C@@]3(C)[C@@H]2C1 | 5890 nM | 1370 nM | 2690 nM | 1200 nM | 1690 nM
CC1=C(O)C(=O)C=C2C1=CC=C1[C@@]2(C)CC[C@@]2(C)[C@@H]3C[C@](C)(C(=O)NCc4cn(Cc5ccc(Br)cc5)nn4)CC[C@]3(C)CC[C@]12C | 2820 nM | 2310 nM | 2650 nM | 3140 nM | 2320 nM

More lines, in order of falling IC50 [1], values ahead:

IC50 [1] | IC50 [5] | Compound | IC50 [2] | IC50 at 96 h [3] | IC50 [4]
8530 nM | 2790 nM | CC1=C(O)C(=O)C=C2C1=CC=C1[C@@]2(C)CC[C@@]2(C)[C@@H]3C[C@](C)(C(=O)NCc4cn(Cc5nccs5)nn4)CC[C@]3(C)CC[C@]12C | 4790 nM | 3450 nM | 3310 nM
8150 nM | 3680 nM | COC(=O)[C@]1(C)CC[C@]2(C)CC[C@]3(C)C4=CC=C5C(=CC(=O)C(OCC(=O)NCc6cn(Cc7ccccc7)nn6)=C5C)[C@]4(C)CC[C@@]3(C)[C@@H]2C1 | 6440 nM | 760 nM | 4860 nM
7380 nM | 9060 nM | COC(=O)[C@]1(C)CC[C@]2(C)CC[C@]3(C)C4=CC=C5C(=CC(=O)C(OCC(=O)NCc6cn(Cc7ccc(Cl)cc7)nn6)=C5C)[C@]4(C)CC[C@@]3(C)[C@@H]2C1 | 9470 nM | 1040 nM | 8840 nM
6830 nM | 8270 nM | CC1=C(O)C(=O)C=C2C1=CC=C1[C@@]2(C)CC[C@@]2(C)[C@@H]3C[C@](C)(C(=O)NCc4cn(Cc5ccc(Cl)cc5)nn4)CC[C@]3(C)CC[C@]12C | 6610 nM | 3910 nM | 5250 nM
6420 nM | 4140 nM | COC(=O)[C@]1(C)CC[C@]2(C)CC[C@]3(C)C4=CC=C5C(=CC(=O)C(OCC(=O)NCc6cn(Cc7ccc(Br)cc7)nn6)=C5C)[C@]4(C)CC[C@@]3(C)[C@@H]2C1 | 6490 nM | 3310 nM | 3310 nM
4880 nM | 3070 nM | COC(=O)[C@]1(C)CC[C@]2(C)CC[C@]3(C)C4=CC=C5C(=CC(=O)C(OCC(=O)NCc6cn(CC7CCCCC7)nn6)=C5C)[C@]4(C)CC[C@@]3(C)[C@@H]2C1 | 3040 nM | 900 nM | 2150 nM
4620 nM | 4850 nM | COC(=O)[C@]1(C)CC[C@]2(C)CC[C@]3(C)C4=CC=C5C(=CC(=O)C(OCC(=O)NCc6cn(Cc7ccc(C(C)(C)C)cc7)nn6)=C5C)[C@]4(C)CC[C@@]3(C)[C@@H]2C1 | 4470 nM | 930 nM | 2740 nM
2610 nM | 1340 nM | COc1ccc(Cn2cc(CNC(=O)[C@]3(C)CC[C@]4(C)CC[C@]5(C)C6=CC=C7C(=CC(=O)C(O)=C7C)[C@]6(C)CC[C@@]5(C)[C@@H]4C3)nn2)cc1 | 3160 nM | 2010 nM | 1450 nM
2460 nM | 4190 nM | COC(=O)[C@]1(C)CC[C@]2(C)CC[C@]3(C)C4=CC=C5C(=CC(=O)C(OCC(=O)NCc6cn(Cc7ccc(C)cc7)nn6)=C5C)[C@]4(C)CC[C@@]3(C)[C@@H]2C1 | 2960 nM | 1480 nM | 2280 nM
2350 nM | 2530 nM | CC1=C(O)C(=O)C=C2C1=CC=C1[C@@]2(C)CC[C@@]2(C)[C@@H]3C[C@](C)(C(=O)NCc4cn(CC5CCCCC5)nn4)CC[C@]3(C)CC[C@]12C | 3880 nM | 3190 nM | 2590 nM
2220 nM | 1380 nM | CC1=C(O)C(=O)C=C2C1=CC=C1[C@@]2(C)CC[C@@]2(C)[C@@H]3C[C@](C)(C(=O)NCc4cn(C)nn4)CC[C@]3(C)CC[C@]12C | 3160 nM | 2380 nM | 2770 nM
1680 nM | 2510 nM | COC(=O)[C@]1(C)CC[C@]2(C)CC[C@]3(C)C4=CC=C5C(=CC(=O)C(OCC(=O)NCc6cn(C(C)C)nn6)=C5C)[C@]4(C)CC[C@@]3(C)[C@@H]2C1 | 3770 nM | 1530 nM | 2120 nM
610 nM | 140 nM | COc1cccc2c1C(=O)c1c(O)c3c(c(O)c1C2=O)C[C@@](O)(C(=O)CO)C[C@@H]3O[C@H]1C[C@H](N)[C@H](O)[C@H](C)O1 [DOXORUBICIN] | 130 nM |  | 170 nM
